Converted amounts (≈) assume the structure as drawn. Read-outs that look alike come from different tables or passages of the source.
What was measured:
[1] = test system: Staph. epidermidis 3519 RARI; assay: microbe, parasite or virus in culture; assay type: cell-based
Strep. pyogenes EES61 = assay: antimicrobial spectrum, agar dilution MIC; assay type: cell-based; details: BHI agar, 35°-37° C., 20-24 hours
Staph. aureus ATCC 25923 = assay: antimicrobial spectrum, agar dilution MIC; assay type: cell-based; details: 35°-37° C., 20-24 hours
Staph. aureus CMX 739A = assay: antimicrobial spectrum, agar dilution MIC; assay type: cell-based; details: BHI agar, 35°-37° C., 20-24 hours
Staph. aureus CMX 705 = assay: antimicrobial spectrum, agar dilution MIC; assay type: cell-based; details: 35°-37° C., 20-24 hours
Staph. aureus CYR 1162 = assay: antimicrobial spectrum, agar dilution MIC; assay type: cell-based; details: 35°-37° C., 20-24 hours
[2] = test system: Staph. epidermidis CMX 728; assay: antimicrobial spectrum, agar dilution MIC; assay type: cell-based; details: 35°-37° C., 20-24 hours
[3] = test system: Staph. epidermidis GYR 1151; assay: antimicrobial spectrum, agar dilution MIC; assay type: cell-based; details: 35°-37° C., 20-24 hours
[4] = test system: Strep. agalactiae CMX 633; assay: antimicrobial spectrum, agar dilution MIC; assay type: cell-based; details: 35°-37° C., 20-24 hours
[5] = test system: Strep. pyogenes M79061-139; assay: antimicrobial spectrum, agar dilution MIC; assay type: cell-based; details: 35°-37° C., 20-24 hours
[6] = test system: Strep. pyogenes M79061-140; assay: antimicrobial spectrum, agar dilution MIC; assay type: cell-based; details: 35°-37° C., 20-24 hours
Bact. fragilis 105 = assay: antimicrobial spectrum, agar dilution MIC; assay type: cell-based; details: BHI agar, 35°-37° C., 20-24 hours
Bact. vulgatus 792 = assay: antimicrobial spectrum, agar dilution MIC; assay type: cell-based; details: BHI agar, 35°-37° C., 20-24 hours
[7] = test system: Bact. melaninogenicus ATCC 15930; assay: antimicrobial spectrum, agar dilution MIC; assay type: cell-based; details: 35°-37° C., 20-24 hours
Cl. perfringens 104 = assay: microbe, parasite or virus in culture; assay type: cell-based
Cl. perfringens 788 = assay: microbe, parasite or virus in culture; assay type: cell-based
Strep. pneumoniae = assay: acute mouse protection test; assay type: in vivo, Swiss albino mice; details: mice, dosed 1 and 5 hours post-infection, observed 7 days; for ED50: Streptococcus pneumoniae, 168 h
Strep. pyogenes = assay: acute mouse protection test; assay type: in vivo, Swiss albino mice; details: mice, dosed 1 and 5 hours post-infection, observed 7 days; for ED50: Streptococcus pyogenes, 168 h
Staph. aureus CMX 686B = assay: antimicrobial spectrum, agar dilution MIC
Staph. aureus A5177 = assay: antimicrobial spectrum, agar dilution MIC
Staph. epidermidis 3519 = assay: antimicrobial spectrum, agar dilution MIC
[8] = test system: Strep. agalactiae CMX 508; assay: antimicrobial spectrum, agar dilution MIC
E. coli DC-2 = assay: antimicrobial spectrum, agar dilution MIC
E. coli H560 = assay: antimicrobial spectrum, agar dilution MIC
E. coli KNK 437 = assay: antimicrobial spectrum, agar dilution MIC
[9] = test system: Staph. epidermidis CMX 724G; assay: antimicrobial spectrum, agar dilution MIC
Enterococcus CMX 736F = assay: antimicrobial spectrum, agar dilution MIC
Enterococcus A-5168 = assay: antimicrobial spectrum, agar dilution MIC
Strep. faecalis CMX 663F = assay: antimicrobial spectrum, agar dilution MIC
Bact. fragilis SFM2929-1 = assay: antimicrobial spectrum, agar dilution MIC
[10] = test system: Bact. thetaiotamicron ATCC 29741; assay: antimicrobial spectrum, agar dilution MIC
Cl. difficile ATCC 9689 = assay: antimicrobial spectrum, agar dilution MIC
[11] = test system: Propionibacterium acnes 132; assay: antimicrobial spectrum, agar dilution MIC
Peptostrep. SP TB-11 = assay: antimicrobial spectrum, agar dilution MIC
[12] = test system: Peptostrep. micros ATCC 33270; assay: antimicrobial spectrum, agar dilution MIC

Compound: CCC1OC(=O)C(C)C(OC2CC(C)(OC)CC(C)O2)C(C)C(OC2OC(C)CC(N(C)C)C2O)C(C)(O)CC(C)C(=O)C(C)C2OC(=O)OC12C (centres unmarked) [4"-deoxyerythromycin A 11,12-carbonate]
- MIC ([1]; Staph. epidermidis 3519 RARI, BHI agar, 35°-37° C., 20-24 hours): .1 µg/mL (≈ 0.134 µM)
- MIC (Strep. pyogenes EES61): .01 µg/mL (≈ 0.0134 µM)
- MIC (Staph. aureus ATCC 25923; BHI agar): .03 µg/mL (≈ 0.0403 µM)
- MIC (Staph. aureus CMX 739A): .03 µg/mL (≈ 0.0403 µM)
- MIC (Staph. aureus CMX 705; BHI agar): .03 µg/mL (≈ 0.0403 µM)
- MIC (Staph. aureus CYR 1162; BHI agar): .06 µg/mL (≈ 0.0807 µM)
- MIC ([2]; BHI agar): .03 µg/mL (≈ 0.0403 µM)
- MIC ([3]; BHI agar): .06 µg/mL (≈ 0.0807 µM)
- MIC ([4]; BHI agar): .015 µg/mL (≈ 0.0202 µM)
- MIC ([5]; BHI agar): .015 µg/mL (≈ 0.0202 µM)
- MIC ([6]; BHI agar): .001 µg/mL (≈ 0.00134 µM)
- MIC (Bact. fragilis 105): .2 µg/mL (≈ 0.269 µM)
- MIC (Bact. vulgatus 792): .2 µg/mL (≈ 0.269 µM)
- MIC ([7]; BHI agar): .1 µg/mL (≈ 0.134 µM)
- MIC (Cl. perfringens 104; Cl. perfringens 104, BHI agar, 35°-37° C., 20-24 hours): .4 µg/mL (≈ 0.538 µM)
- MIC (Cl. perfringens 788; Cl. perfringens 788, BHI agar, 35°-37° C., 20-24 hours): .4 µg/mL (≈ 0.538 µM)
- ED-50 (Strep. pneumoniae; oral): 200.0 mg/kg
- ED-50 (Strep. pneumoniae; subcutaneous): 44.1 mg/kg
- ED-50 (Strep. pyogenes; oral): 8.9 mg/kg
- ED-50 (Strep. pyogenes; subcutaneous): 4.0 mg/kg
- MIC (Staph. aureus CMX 686B; Staph. aureus CMX 686B, BHI agar, 35°-37° C., 20-24 hours): .1 µg/mL (≈ 0.134 µM)
- MIC (Staph. aureus A5177; Staph. aureus A5177, BHI agar, 35°-37° C., 20-24 hours): .39 µg/mL (≈ 0.524 µM)
- MIC (Staph. epidermidis 3519; Staph. epidermidis 3519, BHI agar, 35°-37° C., 20-24 hours): .1 µg/mL (≈ 0.134 µM)
- MIC ([8]; Strep. agalactiae CMX 508, BHI agar, 35°-37° C., 20-24 hours): .02 µg/mL (≈ 0.0269 µM)
- MIC (E. coli DC-2; E. coli DC-2, BHI agar, 35°-37° C., 20-24 hours): 25 µg/mL (≈ 33.6 µM)
- MIC (E. coli H560; E. coli H560, BHI agar, 35°-37° C., 20-24 hours): 6.2 µg/mL (≈ 8.33 µM)
- MIC (E. coli KNK 437; E. coli KNK 437, BHI agar, 35°-37° C., 20-24 hours): 25 µg/mL (≈ 33.6 µM)
- MIC ([9]; Staph. epidermidis CMX 724G, BHI agar, 35°-37° C., 20-24 hours): 128 µg/mL (≈ 172 µM)
- MIC (Enterococcus CMX 736F; Enterococcus CMX 736F, BHI agar, 35°-37° C., 20-24 hours): .12 µg/mL (≈ 0.161 µM)
- MIC (Enterococcus A-5168; Enterococcus A-5168, BHI agar, 35°-37° C., 20-24 hours): 128 µg/mL (≈ 172 µM)
- MIC (Strep. faecalis CMX 663F; Strep. faecalis CMX 663F, BHI agar, 35°-37° C., 20-24 hours): 2 µg/mL (≈ 2.69 µM)
- MIC (Bact. fragilis SFM2929-1; Bact. fragilis SFM2929-1, BHI agar, 35°-37° C., 20-24 hours): 1.6 µg/mL (≈ 2.15 µM)
- MIC ([10]; Bact. thetaiotamicron ATCC 29741, BHI agar, 35°-37° C., 20-24 hours): 1.6 µg/mL (≈ 2.15 µM)
- MIC (Cl. difficile ATCC 9689; Cl. difficile ATCC 9689, BHI agar, 35°-37° C., 20-24 hours): .4 µg/mL (≈ 0.538 µM)
- MIC ([11]; Propionibacterium acnes 132, BHI agar, 35°-37° C., 20-24 hours): .05 µg/mL (≈ 0.0672 µM)
- MIC (Peptostrep. SP TB-11; Peptostrep. SP TB-11, BHI agar, 35°-37° C., 20-24 hours): .8 µg/mL (≈ 1.08 µM)
- MIC ([12]; Peptostrep. micros ATCC 33270, BHI agar, 35°-37° C., 20-24 hours): .05 µg/mL (≈ 0.0672 µM)

Compound: CC[C@H]1OC(=O)[C@H](C)[C@@H](O[C@H]2C[C@@](C)(OC)[C@@H](O)[C@H](C)O2)[C@H](C)[C@@H](O[C@@H]2O[C@H](C)C[C@H](N(C)C)[C@H]2O)[C@](C)(O)C[C@@H](C)C(=O)[C@H](C)[C@@H](O)[C@]1(C)O [Erythromycin A, reference compound]
- MIC ([1]; Staphylococcus epidermidis, 3519RARI): 0.39 µg/mL (≈ 0.531 µM)
- MIC (Strep. pyogenes EES61; Streptococcus pyogenes, read-out: MIC): 0.01 µg/mL (≈ 0.0136 µM)
- MIC (Staph. aureus ATCC 25923; Staphylococcus aureus, ATCC25923, BHI agar, read-out: MIC): 0.06 µg/mL (≈ 0.0818 µM)
- MIC (Staph. aureus CMX 739A; Staphylococcus aureus, CMX739A, read-out: MIC): 0.06 µg/mL (≈ 0.0818 µM)
- MIC (Staph. aureus CMX 705; Staphylococcus aureus, CMX705, BHI agar, read-out: MIC): 0.06 µg/mL (≈ 0.0818 µM)
- MIC (Staph. aureus CYR 1162; Staphylococcus aureus, CYR1162, BHI agar, read-out: MIC): 0.06 µg/mL (≈ 0.0818 µM)
- MIC ([2]; Staphylococcus epidermidis, CMX728, BHI agar, read-out: MIC): 0.06 µg/mL (≈ 0.0818 µM)
- MIC ([3]; Staphylococcus epidermidis, GYR1151, BHI agar, read-out: MIC): 0.06 µg/mL (≈ 0.0818 µM)
- MIC ([4]; Streptococcus agalactiae, CMX633, BHI agar, read-out: MIC): 0.015 µg/mL (≈ 0.0204 µM)
- MIC ([5]; Streptococcus pyogenes, M79061139, BHI agar, read-out: MIC): 0.015 µg/mL (≈ 0.0204 µM)
- MIC ([6]; Streptococcus pyogenes, M79061140, BHI agar, read-out: MIC): 0.002 µg/mL (≈ 0.00273 µM)
- MIC (Bact. fragilis 105; Bacteroides fragilis, read-out: MIC): 0.4 µg/mL (≈ 0.545 µM)
- MIC (Bact. vulgatus 792; Phocaeicola vulgatus, read-out: MIC): 0.4 µg/mL (≈ 0.545 µM)
- MIC ([7]; Prevotella intermedia, ATCC15930, BHI agar, read-out: MIC): 0.4 µg/mL (≈ 0.545 µM)
- MIC (Cl. perfringens 104; Clostridium perfringens, 104): 1.6 µg/mL (≈ 2.18 µM)
- MIC (Cl. perfringens 788; Clostridium perfringens, 788): 1.6 µg/mL (≈ 2.18 µM)
- ED50 (Strep. pneumoniae; oral): 113 mg/kg
- ED50 (Strep. pneumoniae; sc, subcutaneous): 50 mg/kg
- ED50 (Strep. pyogenes; oral): 50 mg/kg
- ED50 (Strep. pyogenes; sc, subcutaneous): 3.5 mg/kg
- MIC (Staph. aureus CMX 686B; Staphylococcus aureus, CMX686B): 0.39 µg/mL (≈ 0.531 µM)
- MIC (Staph. aureus A5177; Staphylococcus aureus, A5177): 1.56 µg/mL (≈ 2.13 µM)
- MIC (Staph. epidermidis 3519; Staphylococcus epidermidis, 3519): 0.39 µg/mL (≈ 0.531 µM)
- MIC ([8]; Streptococcus agalactiae, CMX508): 0.05 µg/mL (≈ 0.0681 µM)
- MIC (E. coli DC-2; Escherichia coli, DC2): 50 µg/mL (≈ 68.1 µM)
- MIC (E. coli H560; Escherichia coli, H560): 12.5 µg/mL (≈ 17 µM)
- MIC (E. coli KNK 437; Escherichia coli, KNK437): 100 µg/mL (≈ 136 µM)
- MIC ([9]; Staphylococcus epidermidis, CMX724G): 128 µg/mL (≈ 174 µM)
- MIC (Enterococcus CMX 736F; Enterococcus, CMX736F): 0.1 µg/mL (≈ 0.136 µM)
- MIC (Enterococcus A-5168; Enterococcus, A5168): 128 µg/mL (≈ 174 µM)
- MIC (Strep. faecalis CMX 663F; Enterococcus faecalis, CMX663F): 16 µg/mL (≈ 21.8 µM)
- MIC (Bact. fragilis SFM2929-1; Bacteroides fragilis, SFM29291): 3.1 µg/mL (≈ 4.22 µM)
- MIC [10]: 3.1 µg/mL (≈ 4.22 µM)
- MIC (Cl. difficile ATCC 9689; Clostridioides difficile, ATCC9689): 0.4 µg/mL (≈ 0.545 µM)
- MIC ([11]; Cutibacterium acnes, 132): 0.05 µg/mL (≈ 0.0681 µM)
- MIC (Peptostrep. SP TB-11): 3.1 µg/mL (≈ 4.22 µM)
- MIC [12]: 0.1 µg/mL (≈ 0.136 µM)

Source: patent US4681872A (priority 1985, dated 1987)
